Test system: P301S tau Tg mice
Test: Tau accumulation in hippocampus by RAB-RIPA-FA extraction and Western blotting
Format: in vivo, mouse
Conditions: 3 mg/kg daily, from 6 to 9 months of age
Protocol: T-518, ACY-738, Ricolinostat, and Tubastatin A were synthesized in Takeda. For in vitro cellular experiments, the compounds were solubilized with DMSO and diluted in the culture medium at the indicated concentrations. For in vivo experiments, the compound was reconstituted in 0.5% methylcellulose and administered orally at the indicated doses. After administration, mouse hippocampus was isolated and homogenized in RIPA extraction buffer (50 mM Tris–HCl, 150 mM NaCl, 1% NP-40, 0.5% sodium deoxycholate, and 0.1% SDS, pH 8.0) supplemented with protease and phosphatase inhibitor cocktail (Thermo Fischer, Waltham, MA, USA). The homogenate was centrifuged at 10,000g for 15 min and the supernatant was taken as the RIPA-soluble fraction.
Cell lysate or in vivo protein samples were separated by 10% SDS-PAGE, then electrophoretically transferred to 0.45 μm poly-vinylidene difluoride membranes (Millipore). Membranes were blocked for 1 h in Blocking Reagent (TOYOBO, Osaka, Japan), probed with primary antibodies followed by labeling with HRP-coupled secondary antibodies (Amersham, Piscataway, NJ), and then visualized using chemiluminescence reagent (ECL; Amersham). Images were captured using ImageQuant LAS 4000 (GE healthcare Bio-Sciences, Marlborough, MA, USA). Quantitative densitometric analyses were conducted using ImageQuant TL (GE healthcare Bio-Sciences). […]

O=C1c2cc(-c3nnc(C(F)F)o3)cnc2CN1[C@@H]1CCCC[C@H]1NC(=O)C(F)(F)C(F)(F)F [T-518, N-[(1R,2R)-2-{3-[5-(difluoromethyl)-1,3,4-oxadiazol-2-yl]-5-oxo-5H,6H,7H-pyrrolo[3,4-b]pyridin-6-yl}cyclohexyl]-2,2,3,3,3-pentafluoropropanamide]
RAB-soluble and RIPA-soluble tau fractions in hippocampus: without affecting | accumulation of tau in the FA fraction (RIPA-insoluble tau) in hippocampus: significantly decreased

Source: article PMC8322070, “A novel orally active HDAC6 inhibitor T-518 shows a therapeutic potential for Alzheimer’s disease and tauopathy in mice” (Scientific Reports, 2021)
